IC50 data for 1 molecule are collected here from patent US11845749B1, “Substituted pyrido[4′,3′:5,6]pyrazino[1,2-a]indoles as anticancer agents” (KING FAISAL UNIVERSITY, priority 2023, dated 2023).

Each structure is given as a SMILES string.

For one experiment, the system named is MDA-MB-231 (breast). Description: In vitro cytotoxic activity (MTT) assay, MDA-MB-231. Format: cell-based. The conditions noted are these: Homo sapiens, cells exposed for 96 hours, read-out: IC50, 50% inhibition of cell proliferation. How it is done:
(§1) Compounds 1-12 were screened for their in vitro cytotoxic activity utilizing a 3-(4,5-dimethyl-thiazol-2-yl)-2,5-diphenyltetrazolium bromide (MTT) assay against selected cancer human cell lines consisting of PC3 (prostate), HCT116 (colon), A375 (melanoma), H1299 (lung), MIAPaCa-2 (pancreas), HL60 (leukemia), MCF7 (breast), MDA-MB-231 (breast) (T. Mosmann, J. Immunol. Meth., 1983, 65, 55-63). The cells were cultured at 37° C. in RMPI1640 medium supplemented with 10% fetal bovine serum, 50 IU/mL penicillin, and 50 μg/mL streptomycin in a 5% CO2 incubator. All cells were sub-cultured 3 times/week by trypsinisation. Viable cells were seeded and allowed to adhere for 12 h before a test drug was added in 96-well plates at an initial density of 1.0×10^5 cells/mL. Tumour cell lines were separately exposed to various concentrations of the tested compounds followed by incubation at a temperature of 37° C. during 96 h inside a medium of fresh RMPI 1640. Cells were subsequently incubated at 37° C. using MTT at 0.5 mg/mL during 4 h. After removal of supernatant, formazan crystals were dissolved in isopropanol and the optical density was measured at 570 nm. CX-4945 was used as a positive control.

The next experiment concerns MIAPaCa-2 (pancreas). Description: In vitro cytotoxic activity (MTT) assay, MIAPaCa-2. Type of experiment: cell-based. The conditions noted are these: Homo sapiens, MIA PaCa-2, cells exposed for 96 hours, read-out: IC50, 50% inhibition of cell proliferation. Here is the method: as §1
Another experiment relates to MCF7 (breast). The experiment is described as follows: In vitro cytotoxic activity (MTT) assay, MCF7. Format: cell-based. The conditions noted are these: Homo sapiens, cells exposed for 96 hours, read-out: IC50, 50% inhibition of cell proliferation. Here is the method: as §1
In a further experiment the test system is HL60 (leukemia). Description: In vitro cytotoxic activity (MTT) assay, HL60. Format: cell-based. Conditions: Homo sapiens, HL-60, cells exposed for 96 hours, read-out: IC50, 50% inhibition of cell proliferation. How it is done:
as §1

Another experiment concerns the target T1, recombinant human CK2 (Homo sapiens, UniProt P68400).
T1 construct: purchased Millipore
Description: CK2 Kinase Assay (33P-ATP, filter plate). Format: biochemical. Conditions: final ATP concentration 15 μM, 10 min at 30° C.; read-out: protein kinase CK2 IC50. How it is done:
CK2 Kinase Assay was conducted using the protocol as described in Pierre F. et al; J. Med. Chem. 2011, 54, 635-654. The tested compounds in aqueous solution were added at a volume of 10 μL to a reaction mixture comprising 10 μL of assay dilution buffer (ADB; 20 mM MOPS, pH 7.2, 25 mM β-glycerol phosphate, 5 mM EGTA, 1 mM sodium orthovanadate, and 1 mM dithiothreitol), 10 μL of substrate peptide (RRRDDDSDDD, dissolved in ADB at a concentration of 1 mM), 10 μL of recombinant human CK2 (RRfββ-holoenzyme, 25 ng dissolved in ADB; Millipore). Reactions were initiated by the addition of 10 μL of ATP solution (90% 75 mMMgCl2, 75 μM ATP (final ATP concentration:15 μM) dissolved in ADB; 10% [γ-33P] ATP (stock 1mCi/100 μL; 3000 Ci/mmol (Perkin-Elmer) and maintained for 10 min at 30° C. The reactions were quenched with 100 μL of 0.75% phosphoric acid and then transferred to and filtered through a phosphor cellulose filter plate (Millipore). After washing each well five times with 0.75% phosphoric acid, the plate was dried under vacuum for 5 min and, following the addition of 15 μL of scintillation fluid to each well, the residual radioactivity was measured using a Wallac […]. The IC50 values were derived from eight concentrations of test inhibitors.

The test system of a further experiment is HCT116 (colon). Description: In vitro cytotoxic activity (MTT) assay, HCT116. Conditions: Homo sapiens, HCT-116, cells exposed for 96 hours, read-out: IC50, 50% inhibition of cell proliferation. Format: cell-based. How it is done: as §1
Another experiment concerns A375 (melanoma). Description: In vitro cytotoxic activity (MTT) assay, A375. Format: cell-based. The conditions noted are these: Homo sapiens, A-375, cells exposed for 96 hours, read-out: IC50, 50% inhibition of cell proliferation. Here is the method: as §1
A further experiment concerns H1299 (lung). Description: In vitro cytotoxic activity (MTT) assay, H1299. Format: cell-based. The conditions noted are these: Homo sapiens, NCI-H1299, cells exposed for 96 hours, read-out: IC50, 50% inhibition of cell proliferation. How it is done: as §1
The next experiment concerns PC3 (prostate). The experiment is described as follows: In vitro cytotoxic activity (MTT) assay, PC3. Type of experiment: cell-based. Conditions: Homo sapiens, Prostate cell, cells exposed for 96 hours, read-out: IC50, 50% inhibition of cell proliferation. How it is done:
as §1

T1 sequence (P68400 whole entry): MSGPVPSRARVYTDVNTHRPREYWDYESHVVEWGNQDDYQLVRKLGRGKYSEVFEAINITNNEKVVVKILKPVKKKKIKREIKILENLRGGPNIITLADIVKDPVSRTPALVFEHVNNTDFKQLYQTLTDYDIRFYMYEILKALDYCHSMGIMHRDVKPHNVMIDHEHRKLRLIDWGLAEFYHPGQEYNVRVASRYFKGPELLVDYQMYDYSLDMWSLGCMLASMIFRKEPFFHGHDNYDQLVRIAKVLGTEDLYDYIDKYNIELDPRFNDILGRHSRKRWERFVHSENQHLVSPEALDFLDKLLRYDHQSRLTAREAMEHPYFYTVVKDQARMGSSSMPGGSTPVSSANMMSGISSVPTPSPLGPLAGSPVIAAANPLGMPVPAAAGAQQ
T1 sequence (P67870 whole entry partner): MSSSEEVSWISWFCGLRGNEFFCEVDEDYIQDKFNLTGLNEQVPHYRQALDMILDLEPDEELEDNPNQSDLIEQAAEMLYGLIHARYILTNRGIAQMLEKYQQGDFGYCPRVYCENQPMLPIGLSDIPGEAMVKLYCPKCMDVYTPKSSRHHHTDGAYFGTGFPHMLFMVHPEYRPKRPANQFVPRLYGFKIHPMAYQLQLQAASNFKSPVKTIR

Take `O=C(O)c1ccc2c(c1)cc1c(Nc3ccc(Cl)cc3)nc3ccncc3n12` [Compound 1, 6-((4-chlorophenyl)amino)pyrido[4′,3′:5,6]pyrazino[1,2-a]indole-9-carboxylic acid]: the IC50 in the experiment on MDA-MB-231 (breast) stood at 6.1 µM; in the experiment on MIAPaCa-2 (pancreas), 0.9 µM; with MCF7 (breast) it was 7.8 µM; in the experiment on HL60 (leukemia), 2.8 µM; on recombinant human CK2, 0.012 µM; in the experiment on HCT116 (colon) it was 1.9 µM. For the same molecule, the IC50 is 2.5 µM with A375 (melanoma), 3.1 µM in the experiment with H1299 (lung) and 1.6 µM in the experiment on PC3 (prostate).
